According to the NIST ThermoML archive (doi:10.1016/j.jct.2011.02.011):
Several values for one entry are separate records, joined by “and”; a condition that tells them apart may be missing. Equal entries are not always repeated.

Conditions: Crystal, Calculated from knudsen effusion weight loss

[O-][n+]1ccccc1-c1ccccn1 [2,2'-bipyridyl N-oxide]
Conditions | vapor or sublimation pressure
319.17 K | 5.02e-05 kPa and 4.83e-05 kPa and 4.82e-05 kPa
321.15 K | 6.32e-05 kPa and 6.13e-05 kPa
323.16 K | 7.8e-05 kPa and 8.26e-05 kPa and 7.96e-05 kPa
325.15 K | 0.0001 kPa and 9.94e-05 kPa and 0.000102 kPa
327.14 K | 0.000126 kPa and 0.000128 kPa and 0.000127 kPa
329.16 K | 0.000163 kPa and 0.000161 kPa and 0.000162 kPa
331.13 K | 0.000201 kPa and 0.000198 kPa and 0.0002 kPa
